In brackets after ≈: the same amount, converted by molar mass. Numbered stars: 1 amine (or outer) side, 2 acyl side, 3 side chain; on linkers, the order of the positions; unused ones are H or OH. Bridge positions count the residues as written; N and C are the ends. Square brackets hold non-standard residues; d marks the D form. Peptide text beside a SMILES is read from it. * marks the point of attachment. hTyr(3S-OH,4S-OH,3'-OSO3H) = N[C@H](C(=O)O)[C@H](O)[C@@H](O)c1ccc(O)c(OS(=O)(=O)O)c1; pTerphenylCO(4''-OnC5H11) = CCCCCOc1ccc(-c2ccc(-c3ccc(C(=O)*)cc3)cc2)cc1; Orn(4R-OH,5R-OH) = O=C([C@H](C[C@@H](O)[C@@H](O)N[*:3])N[*:1])[*:2]; hTyr(3S-OH,4S-OH) = N[C@H](C(=O)O)[C@H](O)[C@@H](O)c1ccc(O)cc1; Pro(3S-OH,4S-Me) = C[C@H]1CN[C@H](C(=O)O)[C@H]1O; X1 = CCCCCOc1ccc(-c2cc(-c3ccc(C(=O)*)cc3)no2)cc1; Gln(3R-OH) = NC(=O)C[C@@H](O)[C@H](N)C(=O)O; Hyp = O=C(O)[C@@H]1C[C@@H](O)CN1
Assays:
Assay type in all cases: functional
[1] = test system: Candida parapsilosis; test: Antifungal activity against Candida parapsilosis by microdilution AFST-EUCAST method; settings: Lodderomyces parapsilosis
[2] = test system: Candida orthopsilosis; test: Antifungal activity against Candida orthopsilosis by microdilution AFST-EUCAST method; settings: Lodderomyces orthopsilosis
[3] = test system: Candida metapsilosis; test: Antifungal activity against Candida metapsilosis by microdilution AFST-EUCAST method; settings: Lodderomyces metapsilosis

CC[C@@H]([C@H](C)O)n1ncn(-c2ccc(N3CCN(c4ccc(OC[C@@H]5CO[C@@](Cn6cncn6)(c6ccc(F)cc6F)C5)cc4)CC3)cc2)c1=O [POSACONAZOLE]
MIC [1]: 0.02 µg/mL (≈ 0.0285 µM)
MIC50 [1]: 0.02 µg/mL (≈ 0.0285 µM)
MIC [2]: 0.03 µg/mL (≈ 0.0428 µM)
MIC50 [2]: 0.03 µg/mL (≈ 0.0428 µM)
MIC [3]: 0.02 µg/mL (≈ 0.0285 µM)
MIC50 [3]: 0.02 µg/mL (≈ 0.0285 µM)

OC(Cn1cncn1)(Cn1cncn1)c1ccc(F)cc1F [FLUCONAZOLE]
MIC [1]: 0.37 µg/mL (≈ 1.21 µM)
MIC50 [1]: 0.5 µg/mL (≈ 1.63 µM)
MIC [2]: 0.5 µg/mL (≈ 1.63 µM)
MIC50 [2]: 0.5 µg/mL (≈ 1.63 µM)
MIC [3]: 1.26 µg/mL (≈ 4.11 µM)
MIC50 [3]: 1 µg/mL (≈ 3.27 µM)

C[C@@H](c1nc(-c2ccc(C#N)cc2)cs1)[C@](O)(Cn1cncn1)c1ccc(F)cc1F [RAVUCONAZOLE]
MIC [1]: 0.01 µg/mL (≈ 0.0229 µM)
MIC50 [1]: 0.02 µg/mL (≈ 0.0457 µM)
MIC [2]: 0.02 µg/mL (≈ 0.0457 µM)
MIC50 [2]: 0.02 µg/mL (≈ 0.0457 µM)
MIC [3]: 0.02 µg/mL (≈ 0.0457 µM)
MIC50 [3]: 0.02 µg/mL (≈ 0.0457 µM)

CCC(C)n1ncn(-c2ccc(N3CCN(c4ccc(OCC5COC(Cn6cncn6)(c6ccc(Cl)cc6Cl)O5)cc4)CC3)cc2)c1=O (stereo not given) [ITRACONAZOLE]
MIC [1]: 0.02 µg/mL (≈ 0.0283 µM)
MIC50 [1]: 0.03 µg/mL (≈ 0.0425 µM)
MIC [2]: 0.04 µg/mL (≈ 0.0567 µM)
MIC50 [2]: 0.03 µg/mL (≈ 0.0425 µM)
MIC [3]: 0.04 µg/mL (≈ 0.0567 µM)
MIC50 [3]: 0.04 µg/mL (≈ 0.0567 µM)

C[C@@H]1[C@H](O)[C@@H](C)/C=C/C=C/C=C/C=C/C=C/C=C/C=C/[C@H](O[C@@H]2O[C@H](C)[C@@H](O)[C@H](N)[C@@H]2O)C[C@@H]2O[C@](O)(C[C@@H](O)C[C@@H](O)[C@H](O)CC[C@@H](O)C[C@@H](O)CC(=O)O[C@H]1C)C[C@H](O)[C@H]2C(=O)O [AMPHOTERICIN B]
MIC [1]: 0.14 µg/mL (≈ 0.152 µM)
MIC50 [1]: 0.12 µg/mL (≈ 0.13 µM)
MIC [2]: 0.06 µg/mL (≈ 0.0649 µM)
MIC50 [2]: 0.06 µg/mL (≈ 0.0649 µM)
MIC [3]: 0.08 µg/mL (≈ 0.0866 µM)
MIC50 [3]: 0.09 µg/mL (≈ 0.0974 µM)

CC[C@H](C)C[C@H](C)CCCCCCCCC(=O)N[C@H]1C[C@@H](O)[C@@H](NCCN)NC(=O)[C@@H]2[C@@H](O)CCN2C(=O)[C@H]([C@H](O)CCN)NC(=O)[C@H]([C@H](O)[C@@H](O)c2ccc(O)cc2)NC(=O)[C@@H]2C[C@@H](O)CN2C(=O)[C@H]([C@@H](C)O)NC1=O [CASPOFUNGIN]
MIC [1]: 0.4 µg/mL (≈ 0.366 µM)
MIC50 [1]: 0.5 µg/mL (≈ 0.457 µM)
MIC [2]: 0.16 µg/mL (≈ 0.146 µM)
MIC50 [2]: 0.12 µg/mL (≈ 0.11 µM)
MIC [3]: 0.22 µg/mL (≈ 0.201 µM)
MIC50 [3]: 0.25 µg/mL (≈ 0.229 µM)

CCCCCOc1ccc(-c2ccc(-c3ccc(C(=O)N[C@H]4C[C@@H](O)[C@@H](O)NC(=O)[C@@H]5[C@@H](O)[C@@H](C)CN5C(=O)[C@H]([C@@H](C)O)NC(=O)[C@H]([C@H](O)[C@@H](O)c5ccc(O)cc5)NC(=O)[C@@H]5C[C@@H](O)CN5C(=O)[C@H]([C@@H](C)O)NC4=O)cc3)cc2)cc1 [ANIDULAFUNGIN] ({pTerphenylCO(4''-OnC5H11)}-[Orn(4R-OH,5R-OH)]T[Hyp][hTyr(3S-OH,4S-OH)]T[Pro(3S-OH,4S-Me)]; lactam 1-C)
MIC [1]: 0.88 µg/mL (≈ 0.772 µM)
MIC50 [1]: 1 µg/mL (≈ 0.877 µM)
MIC [2]: 0.38 µg/mL (≈ 0.333 µM)
MIC50 [2]: 0.5 µg/mL (≈ 0.438 µM)
MIC [3]: 0.17 µg/mL (≈ 0.149 µM)
MIC50 [3]: 0.18 µg/mL (≈ 0.158 µM)

Nc1nc(=O)[nH]cc1F [FLUCYTOSINE]
MIC [1]: 0.15 µg/mL (≈ 1.16 µM)
MIC50 [1]: 0.12 µg/mL (≈ 0.93 µM)
MIC [2]: 0.12 µg/mL (≈ 0.93 µM)
MIC50 [2]: 0.12 µg/mL (≈ 0.93 µM)
MIC [3]: 0.14 µg/mL (≈ 1.08 µM)
MIC50 [3]: 0.12 µg/mL (≈ 0.93 µM)

CCCCCOc1ccc(-c2cc(-c3ccc(C(=O)N[C@H]4C[C@@H](O)[C@@H](O)NC(=O)[C@@H]5[C@@H](O)[C@@H](C)CN5C(=O)[C@H]([C@H](O)CC(N)=O)NC(=O)[C@H]([C@H](O)[C@@H](O)c5ccc(O)c(OS(=O)(=O)O)c5)NC(=O)[C@@H]5C[C@@H](O)CN5C(=O)[C@H]([C@@H](C)O)NC4=O)cc3)no2)cc1 [MICAFUNGIN] (X1-[Orn(4R-OH,5R-OH)]T[Hyp][hTyr(3S-OH,4S-OH,3'-OSO3H)][Gln(3R-OH)][Pro(3S-OH,4S-Me)]; lactam 1-C)
MIC [1]: 0.73 µg/mL (≈ 0.575 µM)
MIC50 [1]: 1 µg/mL (≈ 0.787 µM)
MIC [2]: 0.25 µg/mL (≈ 0.197 µM)
MIC50 [2]: 0.25 µg/mL (≈ 0.197 µM)
MIC [3]: 0.28 µg/mL (≈ 0.22 µM)
MIC50 [3]: 0.25 µg/mL (≈ 0.197 µM)

C[C@@H](c1ncncc1F)[C@](O)(Cn1cncn1)c1ccc(F)cc1F [VORICONAZOLE]
MIC [1]: 0.02 µg/mL (≈ 0.0573 µM)
MIC50 [1]: 0.02 µg/mL (≈ 0.0573 µM)
MIC [2]: 0.03 µg/mL (≈ 0.0859 µM)
MIC50 [2]: 0.03 µg/mL (≈ 0.0859 µM)
MIC [3]: 0.03 µg/mL (≈ 0.0859 µM)
MIC50 [3]: 0.03 µg/mL (≈ 0.0859 µM)

Reference: ChEMBL document CHEMBL1255323, “Prevalence and susceptibility profile of Candida metapsilosis and Candida orthopsilosis: results from population-based surveillance of candidemia in Spain” (2008)
